Results on two molecules are retold here after paper doi:10.1101/2025.11.20.689572v1 (biorxiv, 2025).

As a reminder, the EC50 is the concentration needed to bring the measured effect to its halfway point. Low readings indicate a more potent agent, high ones a less potent agent. As a reminder, the Ki is a measure of affinity in units of concentration, obtained from inhibition or displacement. Higher therefore signals a looser hold on the target.

The target in test [1] is CHRM3 (Homo sapiens, UniProt P20309). The test is described as follows: cell-based. Details: species or system HTLA; PRESTO-Tango beta-arrestin2 recruitment, luciferase luminescence, concentration-response. The following applies: Assay=Tango; agonist mode.
The target in test [2] is T1, SSTR4 (Homo sapiens, UniProt P31391). In words: cell-based. Details: species or system HTLA; PRESTO-Tango beta-arrestin2 recruitment, luciferase luminescence, concentration-response. The following applies: Assay=Tango; agonist mode.
Test [3] has as its target T1, SSTR4. In words: cell-based. To be noted: HTLA, read-out: N-Desmethyl Xanomeline; Assay=Tango; agonist mode, % of control agonist. More on the design: PRESTO-Tango beta-arrestin2 recruitment, luciferase luminescence, concentration-response. The procedure: (§1) Off-target agonism across the human GPCRome was profiled using PRESTO-Tango, following established protocols with minor adaptations [10]–[12]. […] After ~6 h recovery, cells were transfected with 20 ng plasmid DNA per well and incubated overnight. The next day, 10 µL of test compound (prepared in DMEM + 1% dFBS) was added, and plates were incubated overnight. Media and compounds were removed, and 20 µL per well of Bright-Glo luciferase reagent diluted in assay buffer (Hank’s Balanced Salt Solution (HBSS), 20 mM HEPES, pH 7.4) was added. After 20 min at room temperature (dark), luminescence was recorded. Each plate included the dopamine D2 receptor (DRD2) stimulated with 100 nM quinpirole as a positive control. For the GPCRome screen, each receptor was tested in quadruplicate at 0 and 10 µM compound (final). Responses were expressed as fold change relative to the basal (0 µM) condition. Follow-up concentration–response assays were performed under identical conditions except that serial dilutions of compounds (maximum ~30 µM, final) were added to generate full concentration–response curves.

In test [4] the target is T2, M4 (Homo sapiens, UniProt P08173).
T2 construct: gene CHRM4; full-length receptor; HEK293 with TRUPATH sensors (function)
T2 sequence (P08173 1-479): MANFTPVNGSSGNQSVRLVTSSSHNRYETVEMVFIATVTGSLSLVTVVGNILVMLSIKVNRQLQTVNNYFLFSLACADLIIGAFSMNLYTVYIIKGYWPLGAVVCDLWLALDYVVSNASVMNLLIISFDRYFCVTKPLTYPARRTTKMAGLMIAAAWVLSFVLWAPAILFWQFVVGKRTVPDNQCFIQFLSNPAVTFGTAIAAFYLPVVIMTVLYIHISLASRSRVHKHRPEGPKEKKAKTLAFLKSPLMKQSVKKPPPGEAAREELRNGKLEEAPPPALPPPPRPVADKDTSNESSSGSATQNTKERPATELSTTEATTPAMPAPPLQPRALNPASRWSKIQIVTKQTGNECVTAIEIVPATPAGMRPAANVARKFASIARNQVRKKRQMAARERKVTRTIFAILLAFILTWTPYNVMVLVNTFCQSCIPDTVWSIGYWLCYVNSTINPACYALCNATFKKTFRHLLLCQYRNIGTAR
In words: competitive radioligand binding, HEK293 membranes.

In test [5] the target is α1A (Homo sapiens, UniProt P35348). The test is described as follows: biochemical. More on the design: gene ADRA1A; species or system HEK293; PDSP competitive radioligand binding, membranes of transfected HEK293 cells, filtration, Ki by Cheng-Prusoff. The procedure: (§2) Competitive radioligand binding assays were performed at the NIMH Psychoactive Drug Screening Program (PDSP) using membranes from transiently transfected HEK293 cells in 96-well format as described. Complete, target-specific protocols are available at the PDSP website (https://pdsp.unc.edu/pdspweb/?site=assays). Primary screenings were run at a single test concentration (10 µM) in quadruplicate. […] Secondary assays were conducted in triplicate using 12-point serial dilutions (0, 0.1, 0.3, 1, 3, 10, 30, 100, 300 nM; 1, 3, 10 µM). Assays were performed in a final volume of 125 µL per well in binding buffer, as detailed in the NIMH PDSP protocols (e.g., standard binding buffer: 50 mM Tris-HCl, pH 7.4, 10 mM MgCl2, 0.1 mM EDTA). Radioligand concentrations were chosen near the target-specific Kd. […] After 90 min incubation at room temperature, reactions were terminated by vacuum filtration onto 0.3% polyethyleneimine-pretreated UniFilter-96 GF/C Microplates using a FilterMate harvester, washed three times with ice-cold buffer (50 mM Tris HCl, pH 7.4), dried, treated with MicroScint-O [compound left out] scintillation cocktails, and counted on a MicroBeta counter. Equilibrium inhibition constants (Ki) were calculated from fitted IC50 values using the Cheng–Prusoff equation [14] with the assay-specific radioligand concentration and Kd. […] ND=not determined.

Test [6] has as its target T3, DRD4 (Homo sapiens, UniProt P21917).
T3 sequence (P21917 1-419): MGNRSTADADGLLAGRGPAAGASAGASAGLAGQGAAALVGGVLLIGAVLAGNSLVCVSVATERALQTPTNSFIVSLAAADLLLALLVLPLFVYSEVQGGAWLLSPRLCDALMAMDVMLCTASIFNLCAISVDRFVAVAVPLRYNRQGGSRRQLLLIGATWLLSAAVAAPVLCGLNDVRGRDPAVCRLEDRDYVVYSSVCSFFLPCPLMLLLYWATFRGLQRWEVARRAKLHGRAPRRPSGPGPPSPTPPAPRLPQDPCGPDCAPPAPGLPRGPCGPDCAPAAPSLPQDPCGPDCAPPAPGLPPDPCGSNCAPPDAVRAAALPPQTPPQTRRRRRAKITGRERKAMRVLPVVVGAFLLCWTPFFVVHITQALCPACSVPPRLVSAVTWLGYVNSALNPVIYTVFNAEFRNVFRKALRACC
In words: cell-based. More on the design: species or system HTLA; PRESTO-Tango beta-arrestin2 recruitment, luciferase luminescence, concentration-response. To be noted: Assay=Tango; agonist mode.

In test [7] the target is β2 (Homo sapiens, UniProt P07550). The test is described as follows: biochemical. More on the design: gene ADRB2; species or system HEK293; PDSP competitive radioligand binding, membranes of transfected HEK293 cells, filtration, Ki by Cheng-Prusoff. The procedure:
as §2

Test [8] addresses T3, DRD4. In words: cell-based. Details: PRESTO-Tango beta-arrestin2 recruitment, luciferase luminescence, concentration-response. To be noted: HTLA, read-out: Xanomeline; Assay=Tango; agonist mode, % of control agonist. The procedure:
as §1

T1 sequence (P31391 whole entry): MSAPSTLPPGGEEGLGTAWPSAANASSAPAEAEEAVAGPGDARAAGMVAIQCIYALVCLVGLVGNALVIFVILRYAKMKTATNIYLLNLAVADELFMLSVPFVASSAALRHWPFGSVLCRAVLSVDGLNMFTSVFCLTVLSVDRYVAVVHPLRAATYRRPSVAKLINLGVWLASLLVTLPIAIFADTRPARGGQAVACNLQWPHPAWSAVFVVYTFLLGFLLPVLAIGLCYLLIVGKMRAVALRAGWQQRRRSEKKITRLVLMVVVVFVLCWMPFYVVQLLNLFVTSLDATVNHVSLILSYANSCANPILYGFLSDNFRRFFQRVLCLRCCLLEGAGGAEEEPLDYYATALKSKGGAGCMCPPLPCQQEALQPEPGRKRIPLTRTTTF
CHRM3, sequence (P20309 whole entry): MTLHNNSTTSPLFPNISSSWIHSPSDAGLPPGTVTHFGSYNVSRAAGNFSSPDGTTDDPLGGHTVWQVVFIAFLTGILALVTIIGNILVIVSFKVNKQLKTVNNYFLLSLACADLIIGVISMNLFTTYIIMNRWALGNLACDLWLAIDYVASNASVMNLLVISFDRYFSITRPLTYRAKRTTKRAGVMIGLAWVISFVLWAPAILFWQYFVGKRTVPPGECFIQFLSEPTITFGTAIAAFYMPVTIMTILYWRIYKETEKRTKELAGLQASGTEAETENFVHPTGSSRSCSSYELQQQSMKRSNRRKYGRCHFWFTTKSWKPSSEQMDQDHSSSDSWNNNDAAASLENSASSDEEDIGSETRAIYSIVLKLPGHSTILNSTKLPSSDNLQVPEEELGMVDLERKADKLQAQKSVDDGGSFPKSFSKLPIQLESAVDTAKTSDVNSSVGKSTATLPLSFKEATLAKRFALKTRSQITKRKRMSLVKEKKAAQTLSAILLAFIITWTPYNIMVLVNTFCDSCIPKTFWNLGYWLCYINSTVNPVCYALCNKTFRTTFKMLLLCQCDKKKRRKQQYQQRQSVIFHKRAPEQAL
β2, sequence (P07550 whole entry): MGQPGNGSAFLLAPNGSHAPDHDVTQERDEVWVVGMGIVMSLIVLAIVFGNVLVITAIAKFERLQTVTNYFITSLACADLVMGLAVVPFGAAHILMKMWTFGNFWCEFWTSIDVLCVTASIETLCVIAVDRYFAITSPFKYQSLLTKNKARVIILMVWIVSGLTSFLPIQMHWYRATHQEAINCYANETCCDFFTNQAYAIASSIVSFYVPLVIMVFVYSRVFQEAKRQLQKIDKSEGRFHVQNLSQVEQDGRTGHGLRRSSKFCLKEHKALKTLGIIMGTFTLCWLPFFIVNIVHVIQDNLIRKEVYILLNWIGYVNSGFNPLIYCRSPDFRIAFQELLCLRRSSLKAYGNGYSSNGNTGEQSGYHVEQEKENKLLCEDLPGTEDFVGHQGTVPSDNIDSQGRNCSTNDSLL
α1A, sequence (P35348 whole entry): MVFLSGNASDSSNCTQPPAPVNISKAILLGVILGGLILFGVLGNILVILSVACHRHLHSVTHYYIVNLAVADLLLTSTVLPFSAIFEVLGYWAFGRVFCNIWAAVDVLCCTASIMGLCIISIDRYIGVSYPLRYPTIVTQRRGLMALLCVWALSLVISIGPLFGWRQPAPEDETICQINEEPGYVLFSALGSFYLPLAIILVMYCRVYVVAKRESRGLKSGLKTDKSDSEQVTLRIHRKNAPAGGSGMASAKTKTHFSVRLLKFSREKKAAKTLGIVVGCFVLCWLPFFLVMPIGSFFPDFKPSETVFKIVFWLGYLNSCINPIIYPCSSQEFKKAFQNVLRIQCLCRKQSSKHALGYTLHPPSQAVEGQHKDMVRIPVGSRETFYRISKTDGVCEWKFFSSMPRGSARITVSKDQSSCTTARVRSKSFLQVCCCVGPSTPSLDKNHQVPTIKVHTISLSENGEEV

Take `CCCCCCOc1nsnc1C1=CCCNC1` [N-desmethylxanomeline]: the EC50 was 104 nM in test [1] and 931 nM in test [2]. For the same molecule, in test [3], the Emax worked out at 2.88%. The inhibition constant Ki in test [4] was 117 nM.
Take `CCCCCCOc1nsnc1C1=CCCN(C)C1` [Xanomeline]: the Ki in test [5] and in test [7] was greater than 10000 nM throughout. For the same molecule, in test [6], the EC50 came to 4800 nM. In test [8], the Emax was found to be 11.4%.
